Results taken from article PMC5216056 (Nature Communications, 2017).
Values joined by “and” are separate entries in the source; they are usually repeats but may differ in a detail not shown here. Identical values can stand only once. Like-named read-outs stand apart in the source and are kept apart here.

Legend:
[1] = target: T1, hCB1R (Homo sapiens, UniProt P21554); test: biochemical; assay type: biochemical; details: for Emax: read-out: Emax ± SEM GTPγS hCB1R
T1 construct: host or cells: CHO

[2] = target: T1, hCB1R; test: biochemical; assay type: binding
[3] = logD distribution coefficient
[4] = target: T1, hCB1R; test: cell-based; details: for Emax: read-out: Emax ± SEM cAMP hCB1R
[5] = target: hCB2R (Homo sapiens, UniProt P34972); test: cell-based; assay type: cell-based; parameters: expressed in transfected cells; host or cells: Flp-In-293 (Invitrogen #R750-07), pcDNA5/FRT
Chain of hCB2R (P34972 whole entry): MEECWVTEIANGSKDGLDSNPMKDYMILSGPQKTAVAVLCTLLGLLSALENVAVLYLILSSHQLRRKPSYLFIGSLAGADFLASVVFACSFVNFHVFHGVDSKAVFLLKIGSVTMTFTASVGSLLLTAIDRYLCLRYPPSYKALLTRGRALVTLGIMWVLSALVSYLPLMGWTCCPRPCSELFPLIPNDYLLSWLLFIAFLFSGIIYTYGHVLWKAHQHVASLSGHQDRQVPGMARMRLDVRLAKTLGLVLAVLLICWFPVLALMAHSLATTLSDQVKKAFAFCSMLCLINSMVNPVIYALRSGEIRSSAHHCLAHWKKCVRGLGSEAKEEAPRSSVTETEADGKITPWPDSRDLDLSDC

[6] = target: T2, Rat recombinant TRPM8 (Rattus norvegicus, UniProt Q8R455); test: TRP channel [Ca2+]i assay; assay type: cell-based; details: read-out: TRPM8 IC50 for antagonism of icilin
T2 construct: expressed in transfected cells; host or cells: HEK293 (TRPM8-HEK-293, gift from Mario van der Stelt)
T2 sequence (Q8R455 whole entry): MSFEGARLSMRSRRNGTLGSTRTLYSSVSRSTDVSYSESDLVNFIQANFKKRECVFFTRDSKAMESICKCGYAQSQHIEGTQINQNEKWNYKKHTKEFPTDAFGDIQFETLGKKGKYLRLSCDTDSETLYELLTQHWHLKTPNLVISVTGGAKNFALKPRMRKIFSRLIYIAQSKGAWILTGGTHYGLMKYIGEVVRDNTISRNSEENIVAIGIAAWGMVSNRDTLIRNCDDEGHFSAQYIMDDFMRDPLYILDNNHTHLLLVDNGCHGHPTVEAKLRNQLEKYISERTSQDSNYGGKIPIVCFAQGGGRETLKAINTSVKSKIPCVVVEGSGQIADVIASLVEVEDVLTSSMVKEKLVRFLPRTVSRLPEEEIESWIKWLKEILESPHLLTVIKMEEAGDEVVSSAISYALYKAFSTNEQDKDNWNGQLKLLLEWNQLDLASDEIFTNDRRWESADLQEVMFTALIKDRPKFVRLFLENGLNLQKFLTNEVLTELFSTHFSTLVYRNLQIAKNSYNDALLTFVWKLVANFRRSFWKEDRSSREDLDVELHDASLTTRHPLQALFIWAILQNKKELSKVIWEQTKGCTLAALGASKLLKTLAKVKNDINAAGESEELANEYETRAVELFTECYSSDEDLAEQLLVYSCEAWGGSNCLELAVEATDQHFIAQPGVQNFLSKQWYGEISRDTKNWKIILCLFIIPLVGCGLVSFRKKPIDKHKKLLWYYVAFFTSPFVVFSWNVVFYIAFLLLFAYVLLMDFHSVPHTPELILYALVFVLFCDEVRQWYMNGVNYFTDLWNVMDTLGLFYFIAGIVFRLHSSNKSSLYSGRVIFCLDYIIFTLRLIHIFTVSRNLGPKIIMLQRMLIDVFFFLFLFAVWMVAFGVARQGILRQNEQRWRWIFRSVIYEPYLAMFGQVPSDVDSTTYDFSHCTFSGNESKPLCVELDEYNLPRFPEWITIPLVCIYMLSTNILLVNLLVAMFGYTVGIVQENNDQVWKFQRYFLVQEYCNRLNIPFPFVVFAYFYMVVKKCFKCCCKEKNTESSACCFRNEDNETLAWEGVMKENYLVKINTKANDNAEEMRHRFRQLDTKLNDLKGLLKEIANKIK

[7] = target: T3, Rat recombinant TRPA1 (Rattus norvegicus, UniProt Q6RI86); test: cell-based; assay type: cell-based; details: for EC50: read-out: TRPA1 Potency EC50; for IC50: vs AITC 100μM, 5 min pre-incubation, read-out: TRPA1 IC50 for antagonism or desensitization
T3 construct: expressed in transfected cells
T3 sequence (Q6RI86 whole entry): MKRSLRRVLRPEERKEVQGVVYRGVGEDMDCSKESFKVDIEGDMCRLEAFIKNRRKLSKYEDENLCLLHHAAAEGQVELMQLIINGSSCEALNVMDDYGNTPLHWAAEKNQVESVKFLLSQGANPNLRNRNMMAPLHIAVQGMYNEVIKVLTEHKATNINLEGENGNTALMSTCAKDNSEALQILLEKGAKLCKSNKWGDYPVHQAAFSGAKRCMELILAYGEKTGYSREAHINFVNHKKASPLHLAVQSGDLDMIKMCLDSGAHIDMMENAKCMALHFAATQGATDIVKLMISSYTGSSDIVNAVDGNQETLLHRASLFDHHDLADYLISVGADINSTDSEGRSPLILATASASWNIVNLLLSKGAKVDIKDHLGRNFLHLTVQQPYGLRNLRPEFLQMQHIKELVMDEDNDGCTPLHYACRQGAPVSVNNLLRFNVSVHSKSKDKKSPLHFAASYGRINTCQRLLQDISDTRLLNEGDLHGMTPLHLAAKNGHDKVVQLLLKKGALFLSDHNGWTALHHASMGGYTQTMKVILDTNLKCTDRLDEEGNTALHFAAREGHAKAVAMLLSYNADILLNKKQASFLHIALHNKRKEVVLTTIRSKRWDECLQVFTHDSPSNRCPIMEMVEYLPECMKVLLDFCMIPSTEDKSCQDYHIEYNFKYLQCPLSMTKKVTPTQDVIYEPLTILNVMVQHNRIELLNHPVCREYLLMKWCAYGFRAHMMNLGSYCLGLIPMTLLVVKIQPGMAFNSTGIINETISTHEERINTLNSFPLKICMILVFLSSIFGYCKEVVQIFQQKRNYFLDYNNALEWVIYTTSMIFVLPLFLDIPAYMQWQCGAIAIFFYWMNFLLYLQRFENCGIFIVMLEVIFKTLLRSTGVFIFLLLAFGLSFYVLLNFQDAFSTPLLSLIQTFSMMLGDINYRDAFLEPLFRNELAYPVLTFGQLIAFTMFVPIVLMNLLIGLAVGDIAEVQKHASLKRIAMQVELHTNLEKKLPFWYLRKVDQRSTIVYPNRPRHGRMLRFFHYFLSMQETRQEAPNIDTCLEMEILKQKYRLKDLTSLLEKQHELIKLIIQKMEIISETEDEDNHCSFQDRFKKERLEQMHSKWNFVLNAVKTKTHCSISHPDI

[8] = target: T4, Rat recombinant TRPV3 (Rattus norvegicus, UniProt Q4QYD9); test: cell-based; assay type: cell-based; details: for EC50: read-out: TRPV3 Potency EC50; for IC50: vs thymol 100μM, read-out: TRPV3 IC50 for antagonism or desensitization
T4 construct: expressed in transfected cells; host or cells: HEK293 (TRPV3-HEK-293, gift from HB Bradshaw, Indiana University)
T4 sequence (Q4QYD9 1-791): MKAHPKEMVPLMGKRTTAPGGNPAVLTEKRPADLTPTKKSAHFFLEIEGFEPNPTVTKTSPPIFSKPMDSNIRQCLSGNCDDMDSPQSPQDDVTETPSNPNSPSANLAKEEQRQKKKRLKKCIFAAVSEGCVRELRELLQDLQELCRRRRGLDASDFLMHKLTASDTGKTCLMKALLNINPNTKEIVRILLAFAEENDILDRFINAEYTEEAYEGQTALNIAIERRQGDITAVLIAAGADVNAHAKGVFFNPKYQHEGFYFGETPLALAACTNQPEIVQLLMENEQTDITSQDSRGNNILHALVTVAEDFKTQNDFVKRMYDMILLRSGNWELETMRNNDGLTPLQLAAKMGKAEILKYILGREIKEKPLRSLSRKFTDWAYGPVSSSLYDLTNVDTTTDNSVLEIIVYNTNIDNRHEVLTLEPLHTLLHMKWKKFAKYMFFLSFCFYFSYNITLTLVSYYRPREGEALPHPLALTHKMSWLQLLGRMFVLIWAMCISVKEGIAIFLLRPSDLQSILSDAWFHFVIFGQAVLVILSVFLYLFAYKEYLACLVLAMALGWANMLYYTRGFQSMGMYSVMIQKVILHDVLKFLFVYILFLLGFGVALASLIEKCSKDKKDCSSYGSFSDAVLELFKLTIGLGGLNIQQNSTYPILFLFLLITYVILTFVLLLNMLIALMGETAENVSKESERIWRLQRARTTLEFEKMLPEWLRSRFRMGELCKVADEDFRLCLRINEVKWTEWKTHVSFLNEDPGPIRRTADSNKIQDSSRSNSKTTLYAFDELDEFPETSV

[9] = target: T5, mu (MOP) (h) (Homo sapiens, UniProt P35372); test: CEREP panel; assay type: binding; details: for inhibition at 10 µM: read-out: % inhibition mu (MOP) (h)
T5 construct: CEREP (contract assay)
T5 sequence (P35372 whole entry): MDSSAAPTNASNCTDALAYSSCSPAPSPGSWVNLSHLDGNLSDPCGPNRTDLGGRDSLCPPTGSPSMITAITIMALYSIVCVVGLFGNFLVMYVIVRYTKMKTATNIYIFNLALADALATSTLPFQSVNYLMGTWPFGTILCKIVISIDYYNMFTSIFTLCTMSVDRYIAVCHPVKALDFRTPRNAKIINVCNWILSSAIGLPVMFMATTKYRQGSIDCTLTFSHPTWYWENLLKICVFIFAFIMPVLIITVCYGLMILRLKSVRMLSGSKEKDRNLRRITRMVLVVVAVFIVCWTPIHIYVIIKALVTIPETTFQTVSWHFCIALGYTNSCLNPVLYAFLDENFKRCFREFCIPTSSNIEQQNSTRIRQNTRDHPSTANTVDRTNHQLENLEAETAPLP

[10] = target: T6, PPARgamma (h) (Homo sapiens, UniProt P37231); test: CEREP panel; assay type: binding; details: for inhibition at 10 µM: read-out: % inhibition PPARgamma (h)
T6 construct: CEREP (contract assay)
T6 sequence (P37231 1-505): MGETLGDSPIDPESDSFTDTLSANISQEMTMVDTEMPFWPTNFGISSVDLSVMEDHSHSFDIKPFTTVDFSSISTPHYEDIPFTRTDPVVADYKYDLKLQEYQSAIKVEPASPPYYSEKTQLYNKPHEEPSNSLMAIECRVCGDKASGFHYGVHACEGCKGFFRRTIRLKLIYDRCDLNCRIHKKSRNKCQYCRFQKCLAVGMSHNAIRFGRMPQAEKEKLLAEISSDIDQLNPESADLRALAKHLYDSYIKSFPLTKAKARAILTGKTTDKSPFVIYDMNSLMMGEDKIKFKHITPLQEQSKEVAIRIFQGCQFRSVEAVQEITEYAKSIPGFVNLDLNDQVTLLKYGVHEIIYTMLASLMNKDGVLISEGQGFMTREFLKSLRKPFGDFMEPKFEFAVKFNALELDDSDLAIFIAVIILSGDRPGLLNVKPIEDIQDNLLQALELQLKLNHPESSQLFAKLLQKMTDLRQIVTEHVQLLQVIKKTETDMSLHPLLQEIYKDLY

[11] = target: T7, norepinephrine transporter (h) (Homo sapiens, UniProt P23975); test: biochemical; assay type: binding; details: for inhibition at 10 µM: read-out: % inhibition norepinephrine transporter (h)
T7 construct: CEREP (contract assay)
T7 sequence (P23975 whole entry): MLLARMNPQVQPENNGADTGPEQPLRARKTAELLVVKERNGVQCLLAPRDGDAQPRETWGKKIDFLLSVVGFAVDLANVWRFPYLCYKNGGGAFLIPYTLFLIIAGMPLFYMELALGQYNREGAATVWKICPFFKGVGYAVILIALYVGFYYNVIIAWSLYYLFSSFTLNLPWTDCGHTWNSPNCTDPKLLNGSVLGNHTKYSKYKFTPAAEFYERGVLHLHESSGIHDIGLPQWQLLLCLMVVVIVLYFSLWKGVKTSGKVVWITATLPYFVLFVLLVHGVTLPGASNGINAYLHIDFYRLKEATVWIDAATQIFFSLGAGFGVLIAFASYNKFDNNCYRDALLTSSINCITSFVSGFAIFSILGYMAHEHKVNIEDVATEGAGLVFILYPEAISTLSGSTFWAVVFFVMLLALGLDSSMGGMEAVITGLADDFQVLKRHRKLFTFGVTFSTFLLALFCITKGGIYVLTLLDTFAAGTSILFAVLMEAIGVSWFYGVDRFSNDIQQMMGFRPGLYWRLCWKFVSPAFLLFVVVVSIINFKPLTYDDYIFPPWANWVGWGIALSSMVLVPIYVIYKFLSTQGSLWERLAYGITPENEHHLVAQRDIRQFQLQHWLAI

[12] = test system: PCP; assay type: binding; details: 10 µM
[13] = target: T8, PPARα (h) (Homo sapiens, UniProt Q07869); test: CEREP panel; assay type: binding; details: for inhibition at 10 µM: read-out: % inhibition PPARα (h)
T8 construct: CEREP (contract assay)
T8 sequence (Q07869 1-468): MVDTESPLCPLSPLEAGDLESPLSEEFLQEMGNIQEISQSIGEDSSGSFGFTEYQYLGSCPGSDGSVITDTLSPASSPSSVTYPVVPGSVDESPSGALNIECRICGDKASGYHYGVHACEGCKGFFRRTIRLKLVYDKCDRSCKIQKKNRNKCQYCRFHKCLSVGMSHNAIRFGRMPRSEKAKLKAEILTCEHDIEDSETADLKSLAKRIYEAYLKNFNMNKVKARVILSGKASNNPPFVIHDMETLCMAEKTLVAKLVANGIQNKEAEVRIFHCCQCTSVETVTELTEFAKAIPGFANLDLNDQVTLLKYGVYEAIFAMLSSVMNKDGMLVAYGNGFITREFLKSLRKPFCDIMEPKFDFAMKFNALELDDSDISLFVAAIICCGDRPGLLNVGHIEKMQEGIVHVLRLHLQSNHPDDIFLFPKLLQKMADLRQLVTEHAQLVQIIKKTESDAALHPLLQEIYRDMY

[14] = 1 μM
[15] = AtT20; read-out: Emax ± SEM GIRK hCB2R
[16] = CHO membranes, Leiden, HU210 and SR144528 from Roche

T1 sequence (P21554 whole entry): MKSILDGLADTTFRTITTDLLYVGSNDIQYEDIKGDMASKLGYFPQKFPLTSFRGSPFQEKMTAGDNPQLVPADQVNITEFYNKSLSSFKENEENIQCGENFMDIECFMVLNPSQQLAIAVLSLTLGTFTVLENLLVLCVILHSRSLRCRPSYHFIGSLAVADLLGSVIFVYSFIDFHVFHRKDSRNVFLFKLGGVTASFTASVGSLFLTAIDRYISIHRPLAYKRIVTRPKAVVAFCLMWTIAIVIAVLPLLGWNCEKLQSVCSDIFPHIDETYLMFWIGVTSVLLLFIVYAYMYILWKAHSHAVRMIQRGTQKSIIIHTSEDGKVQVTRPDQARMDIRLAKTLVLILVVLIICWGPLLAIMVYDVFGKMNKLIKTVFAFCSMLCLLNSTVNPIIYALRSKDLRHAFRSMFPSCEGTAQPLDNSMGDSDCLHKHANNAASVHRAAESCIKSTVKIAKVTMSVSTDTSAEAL

CN1CCCCC1Cn1cc(C(=O)c2cc([N+](=O)[O-])ccc2I)c2ccccc21 (racemic) [(rac)-AM1241]
Emax ± SEM GTPγS hCB1R [1]: 42 ± 6 | pKi ± SEM hCB1R [2]: 6.89 ± 0.31 | logD ([3]; distribution coefficient): 3.66±0.03 | pEC50 ± SEM cAMP hCB1R [4]: < 5 | pEC50 ± SEM GIRK hCB2R [5]: 5.23 ± 0.21 | Emax ± SEM GIRK hCB2R ([5]; normalized to CP55940): 59 ± 14%

CCCCC/C=C\C/C=C\C/C=C\C/C=C\CCCC(=O)OC(CO)CO [2-AG, 2-arachidonoyl glycerol]
Emax [1]: 71 ± 20% | Emax [4]: < 70% | Emax [5, 15]: 100 ± 2%

CN1CCCC[C@@H]1Cn1cc(C(=O)c2cc([N+](=O)[O-])ccc2I)c2ccccc21 [(R)-AM1241]
IC50 ([6]; vs icilin […]): > 50 µM | Emax ± SEM GTPγS hCB1R [1]: 47 ± 8 | pEC50 ± SEM GTPγS hCB1R [1]: 6.78 ± 0.40 | pKi ± SEM hCB1R [2, 16]: 6.86 ± 0.46 | TRPA1 Efficacy (%AITC 100μM) [7]: 19.8% | EC50 [7]: 19.5 µM | IC50 [7]: > 50 µM | TRPV3 Efficacy (% ionomycin 4μM) [8]: 12.9% | EC50 [8]: 10 µM | IC50 [8]: > 50 µM | logD ([3]; distribution coefficient): 3.66 | Emax ± SEM cAMP hCB1R [4]: 54 ± 7 | pEC50 ± SEM cAMP hCB1R [4]: 6.17 ± 0.12 | pEC50 ± SEM GIRK hCB2R [5]: < 5 | Emax ± SEM GIRK hCB2R ([5]; normalized to CP55940): 47 ± 13%

Cc1c(C(=O)NN2CCCCC2)nn(-c2ccc(Cl)cc2Cl)c1-c1ccc(I)cc1 [AM251]
% inhibition mu (MOP) (h) ([9]; 10 µM): 93% | TRPA1 Efficacy (%AITC 100μM) [7]: 44.4% | TRPV3 Efficacy (% ionomycin 4μM) [8]: 25.9% | % inhibition PPARgamma (h) ([10]; 10 µM): 55%

CCCCC/C=C\C/C=C\C/C=C\C/C=C\CCCC(=O)NCCO [Anandamide, N-arachidonoylethanolamine]
Emax [5, 15]: 51 ± 5%

CCCCCCC(C)(C)c1ccc([C@@H]2C[C@H](O)CC[C@H]2CCCO)c(O)c1 [CP55940]
inhibition at 10 µM ([9]; 10 µM): 57% | Emax [1]: 92 ± 5% | inhibition at 10 µM ([11]; 10 µM): 89% | % inhibition PCP [12]: 1% | inhibition at 10 µM ([10]; 10 µM): 85%

Cc1ccc2c(c1)Cc1c(C(=O)NN3CCCCC3)nn(-c3ccc(Cl)cc3Cl)c1-2 [Gp-1a]
% inhibition mu (MOP) (h) ([9]; 10 µM): 102% | IC50 ([6]; vs icilin […]): > 50 µM | pEC50 ± SEM GTPγS hCB1R [1]: < 5 | pKi ± SEM hCB1R [2, 16]: 6.97 ± 0.35 | % inhibition norepinephrine transporter (h) ([11]; 10 µM): 59% | TRPA1 Efficacy (%AITC 100μM) [7]: 83.6% and 84 ± 1% | EC50 [7]: 2.1 µM | IC50 [7]: 10.4 µM | % inhibition PPARα (h) ([13]; 10 µM): -9% | % inhibition PCP [12]: -1% | CL hepatocytes mouse [14]: 78 µL/min/mio cells | TRPV3 Efficacy (% ionomycin 4μM) [8]: < 10% | IC50 [8]: 22.6 µM | Emax ± SEM cAMP hCB1R [4]: 19 ± 5 | pEC50 ± SEM cAMP hCB1R [4]: < 5 | CB2R Selectivity GIRK ([5]; 10^(pEC50 CB2R-pEC50 CB1R)): 5 fold | pEC50 ± SEM GIRK hCB2R ([5]; antagonists in presence of CP55940): 5.99 ± 0.08 | % inhibition PPARgamma (h) ([10]; 10 µM): 86%

CCCCCCC(C)(C)c1cc(OC)c([C@@H]2C=C(CO)[C@@H]3C[C@H]2C3(C)C)c(OC)c1 [HU308]
inhibition at 10 µM [9]: 7% | IC50 ([6]; vs icilin 0.25μM): > 100 µM | EC50 [1]: > 10 µM | Emax [1]: 17 ± 9% | Ki [2]: > 10 µM | inhibition at 10 µM [11]: 33% | TRPA1 Efficacy (%AITC 100μM) [7]: 43.1% | EC50 [7]: 18.5 µM | IC50 [7]: > 100 µM | inhibition at 10 µM [13]: -21% | % inhibition PCP [12]: -9% | TRPV3 Efficacy (% ionomycin 4μM) [8]: < 10% | IC50 [8]: > 100 µM | logD [3]: 4.29 | EC50 ([4]; pEC50 ± SEM cAMP hCB1R): > 10 µM | Emax [4]: 18 ± 4% | Emax ([5]; AtT20, read-out: Emax ± SEM GIRK hCB2R): 82 ± 6% | inhibition at 10 µM [10]: 14%

CCCn1c(C)c(C(=O)c2cccc3ccccc23)c2ccccc21 [JWH015]
% inhibition mu (MOP) (h) ([9]; 10 µM): 7% | % inhibition norepinephrine transporter (h) ([11]; 10 µM): 39% | % inhibition PPARα (h) ([13]; 10 µM): -16% | % inhibition PCP [12]: -19% | CL hepatocytes mouse [14]: 205 µL/min/mio cells | % inhibition PPARgamma (h) ([10]; 10 µM): 67%

Cc1c(C(=O)NN2CCCCC2)nn(-c2ccc(Cl)cc2Cl)c1-c1ccc(Cl)cc1 [SR141716A]
IC50 ([6]; icilin concentration not given): 0.041 ± 0.0109 µM | TRPA1 Efficacy (%AITC 100μM) [7]: 67.3% and 67 ± 1% | EC50 [7]: 1.9 µM | IC50 [7]: 12.5 µM | inhibition at 10 µM ([13]; 10 µM): -5% | TRPV3 Efficacy (% ionomycin 4μM) [8]: 38.9% | EC50 [8]: 0.85 µM | IC50 [8]: 3.4 ± 0.4 µM

SR144528
% inhibition mu (MOP) (h) ([9]; 10 µM): 11% | % inhibition norepinephrine transporter (h) ([11]; 10 µM): 29% | TRPA1 Efficacy (%AITC 100μM) [7]: 43.8% | % inhibition PPARα (h) ([13]; 10 µM): -14% | % inhibition PCP [12]: -13% | TRPV3 Efficacy (% ionomycin 4μM) [8]: < 10% | % inhibition PPARgamma (h) ([10]; 10 µM): 31%
